Results reported in patent US11865103B2, “Methods of treating disorders associated with glycosylation defective proteins” (CASE WESTERN RESERVE UNIVERSITY, priority 2016, dated 2024).

How the values were obtained:
[1] = tested on: hCLRN1^N48K-YFP; clrn1^+/+ larvae; test: Larval survival/lethality by TG or ART dose and treatment duration; assay type: in vivo, zebrafish; parameters: key: ‘S’ = Surviving; ‘L’ = Lethal
Experimental: (§1) Thapsigargin (TG, 1 mg, Sigma-Aldrich, #T9033) stock in 100% DMSO was diluted in E3 medium to make the required final concentration of the drug. Five different concentrations that were earlier reported to induce ER stress and are non-toxic or lower lethal dose (LD50) in the zebrafish (0.1, 0.5, 1.0, 2.5, 5 μM concentrations) were used in this study. A total of 25 larvae per dosage and treatment duration from the genotypes hCLRN1^N48K-YFP; clrn1^+/+ and hCLRN1-YFP; clrn1^+/+, no older than 72 hours post fertilization (hpf) at the start of the experiment, were placed in a well of 12-well uncoated culture plate (BD Falcon, Canaan, CT). For ER stress induction, larvae were incubated in different dosage of TG from 1 hr to overnight at 28.5° C., followed by three times wash with E3 medium at 28.5° C. (Table 2) and hair cells from the hCLRN1^N48K-YFP; clrn1^+/+ and hCLRN1-YFP; clrn1^+/+ lines were examined for the respective protein distribution pattern in the hair cell bundle and the cell body. Live confocal images of ‘O’ and ‘ML1’ neuromasts per larvae were capture using Leica SP2 confocal microscope with 40× oil immersion objective. Unadjusted 1 micron middle section images of four hair bundles per ML1 neuromast of larvae from TG treated and untreated groups were analyzed using Image J software version v. 1.48 (FIG. 4). The hair bundle trafficked amount of hCLRN1^N48K protein corresponds to the change in YFP intensity in the hair bundle in the TG treated larvae. Quantification of YFP fluorescence intensity was carried out as described in the previous experiment for unconventional trafficking of hCLRN1^N48K-YFP by hGRASP55 cargos. […] Student's t-test was used to confirm the observed changes in the YFP intensity in the hair bundles of TG treatment compared to untreated hCLRN1^N48K-YFP; clrn1^+/+ larvae, is significant (FIG. 4J).
Arthemisinin (ART, 100 mg, Sigma-Aldrich, #361593) in 100% DMSO was diluted in E3 medium to make the final concentration. Five different concentrations within the range of reported ER stress inducing level in the zebrafish (0.1, 0.25, 0.4, 0.5, and 1 μM concentrations) were used in this study. A total of 25 larvae, no older than 72 hpf at the start of the experiment, were placed in a well of 12-well uncoated culture plate (BD 35 Falcon, Canaan, CT). For ER stress induction, larvae were exposed in different dosage of ART for different duration at 28.5° C. (Table 3) and washed three times with E3 medium, and hair cells from the hCLRN1-YFP; clrn1^+/+ larvae and hCLRN1^N48K-YFP; clrn1^+/+ larvae were examined for the respective protein distribution pattern in the hair cell bundle and the cell body. Live confocal Z-stack images of otic ‘O’ and middle ‘ML’ neuromasts per larvae of hCLRN1-YFP; clrn1^+/+ larvae and hCLRN1^N48K-YFP; clrn1^+/+ genotypes from the untreated group in the E3 medium, 0.01% DMSO treatment group and ART treatment group were capture using Leica SP2 confocal microscope at 40× oil immersion objective. Hair cells from 2 otic (0) and 2 middle (ML) neuromasts per larvae were examined for the change in YFP intensity in the hair bundle and cell body. From the captured confocal images of these neuromast hair cells, unadjusted 1 micron middle section images of 4 mature hair bundles from ML1 neuromast per larvae were considered for the YFP intensity quantification in unadjusted ROI covering the middle section of each hair bundles using the imageJ software. […] The hair bundle trafficked amount of hCLRN1^N48K protein corresponds to the change in YFP intensity in the hair bundle in the ART treated larvae. Quantification of YFP fluorescence intensity was carried out as described in the previous experiment for unconventional trafficking of hCLRN1^N48K-YFP by hGRASP55 cargos. Student's t-test was used to confirm the observed changes in the YFP intensity in the hair bundles of ART treatment compared to untreated and TG treated hCLRN1^N48K-YFP; clrn1^+/+ larvae, is significant (FIG. 4J).

hCLRN1-YFP = test: Localization of wild-type hCLRN1-YFP in neuromast hair cells of hCLRN1-YFP; clrn1^+/+ larvae treated with SERCA inhibitors; assay type: in vivo, zebrafish; settings: for Effect on pattern of localization of wild-type hCLRN1-YFP to the hair cell's bundle or plasma membrane: clrn1^+/+ larvae treated with TG or ART; for YFP intensity in the ROI in hair bundles (Mean±SEM): clrn1^+/+ larvae, 1 uM TG or 0.4 uM ART + 0.01% DMSO in E3 medium, E3 medium 62.82±2.15
Experimental: as §1
Arthemisinin (ART, 100 mg, Sigma-Aldrich, #361593) in 100% DMSO was diluted in E3 medium to make the final concentration. Five different concentrations within the range of reported ER stress inducing level in the zebrafish (0.1, 0.25, 0.4, 0.5, and 1 μM concentrations) were used in this study. A total of 25 larvae, no older than 72 hpf at the start of the experiment, were placed in a well of 12-well uncoated culture plate (BD 35 Falcon, Canaan, CT). […] From the captured confocal images of these neuromast hair cells, unadjusted 1 micron middle section images of 4 mature hair bundles from ML1 neuromast per larvae were considered for the YFP intensity quantification in unadjusted ROI covering the middle section of each hair bundles using the imageJ software. […] Quantification of YFP fluorescence intensity was carried out as described in the previous experiment for unconventional trafficking of hCLRN1^N48K-YFP by hGRASP55 cargos. […]

C[C@@H]1CC[C@H]2[C@@H](C)C(=O)O[C@@H]3O[C@@]4(C)CC[C@@H]1[C@]32OO4 [ART, Artemisinin]
Larvae survival ([1]; ART 0.4 μM, exposure 8 h): L
Larvae survival ([1]; ART 0.4 μM, exposure 10 h): L
Larvae survival ([1]; ART 0.5 μM, exposure 1 h): L
Larvae survival ([1]; ART 0.5 μM, exposure 2 h): L
Larvae survival ([1]; ART 0.5 μM, exposure 4 h): L
Larvae survival ([1]; ART 0.5 μM, exposure 6 h): L
Larvae survival ([1]; ART 0.5 μM, exposure 8 h): L
Larvae survival ([1]; ART 0.5 μM, exposure 10 h): L
Larvae survival ([1]; ART 1.0 μM, exposure 1 h): L
Larvae survival ([1]; ART 1.0 μM, exposure 2 h): L
Larvae survival ([1]; ART 1.0 μM, exposure 4 h): L
Larvae survival ([1]; ART 1.0 μM, exposure 6 h): L
Larvae survival ([1]; ART 1.0 μM, exposure 8 h): L
Larvae survival ([1]; ART 1.0 μM, exposure 10 h): L
Effect on pattern of localization of wild-type hCLRN1-YFP to the hair cell's bundle or plasma membrane (hCLRN1-YFP): did not affect the pattern of localization
YFP intensity in the ROI in hair bundles (Mean±SEM) (hCLRN1-YFP): 71.32±2.05

C/C=C(/C)C(=O)O[C@H]1C(C)=C2[C@H]([C@@H]1OC(=O)CCCCCCC)[C@@](C)(OC(C)=O)C[C@H](OC(=O)CCC)[C@@]1(O)[C@H]2OC(=O)[C@@]1(C)O [TG, Thapsigargin]
Larvae survival ([1]; TG 0.1 μM, exposure 1 h): S
Larvae survival ([1]; TG 0.1 μM, exposure 2 h): S
Larvae survival ([1]; TG 0.1 μM, exposure 3 h): S
Larvae survival ([1]; TG 0.1 μM, exposure 4 h): S
Larvae survival ([1]; TG 0.1 μM, exposure 8 h): S
Larvae survival ([1]; TG 0.1 μM, exposure 16 h): S
Larvae survival ([1]; TG 0.5 μM, exposure 1 h): S
Larvae survival ([1]; TG 0.5 μM, exposure 2 h): S
Larvae survival ([1]; TG 0.5 μM, exposure 3 h): S
Larvae survival ([1]; TG 0.5 μM, exposure 4 h): S
Larvae survival ([1]; TG 0.5 μM, exposure 8 h): S
Larvae survival ([1]; TG 0.5 μM, exposure 16 h): L
Larvae survival ([1]; TG 1.0 μM, exposure 1 h): S
Larvae survival ([1]; TG 1.0 μM, exposure 2 h): S
Larvae survival ([1]; TG 1.0 μM, exposure 3 h): S
Larvae survival ([1]; TG 1.0 μM, exposure 4 h): S
Larvae survival ([1]; TG 1.0 μM, exposure 8 h): L
Larvae survival ([1]; TG 1.0 μM, exposure 16 h): L
Larvae survival ([1]; TG 2.5 μM, exposure 1 h): L
Larvae survival ([1]; TG 2.5 μM, exposure 2 h): L
Larvae survival ([1]; TG 2.5 μM, exposure 3 h): L
Larvae survival ([1]; TG 2.5 μM, exposure 4 h): L
Larvae survival ([1]; TG 2.5 μM, exposure 8 h): L
Larvae survival ([1]; TG 2.5 μM, exposure 16 h): L
Larvae survival ([1]; TG 5.0 μM, exposure 1 h): L
Larvae survival ([1]; TG 5.0 μM, exposure 2 h): L
Larvae survival ([1]; TG 5.0 μM, exposure 3 h): L
Larvae survival ([1]; TG 5.0 μM, exposure 4 h): L
Larvae survival ([1]; TG 5.0 μM, exposure 8 h): L
Larvae survival ([1]; TG 5.0 μM, exposure 16 h): L
Effect on pattern of localization of wild-type hCLRN1-YFP to the hair cell's bundle or plasma membrane (hCLRN1-YFP): did not affect the pattern of localization
YFP intensity in the ROI in hair bundles (Mean±SEM) (hCLRN1-YFP): 68.57±1.36
